According to publication PMC11314561, “Design and Synthesis of Novel Aminoindazole-pyrrolo[2,3-b]pyridine Inhibitors of IKKα That Selectively Perturb Cellular Non-Canonical NF-κB Signalling” (Molecules, 2024):

Experiments:
[1] = test system: panel of 231 kinases; test: Kinome profiling, summary; format: biochemical, human; settings: 1 μM
Text: (§1) We profiled three compounds from the series across the kinome (Table S1).
(§2) Ta b l e S1. The % inhibition of compounds 4, 5r [SU1261], and 6g [SU1349] against a
(§3) panel of kinase enzymes. We proϐiled three compounds from the series across 231
(§4) kinases. For SU1349, given its structural similarity with SU1261, we selected 98 from the
(§5) Tested kinase % inhibiƟon

[2] = test system: MLCK(h); test: kinase panel; format: biochemical, human; settings: 1 μM
Text: as §1, §2, §3, §4, §5

[3] = target: T1, IKKα (Homo sapiens, UniProt O15111); test: DELFIA kinase assay, IKKα; format: biochemical; settings: for Ki: DELFIA kinase assay; for Selectivity for IKKα over IKKβ: ratio of Ki IKKβ to Ki IKKα
T1 sequence (O15111 1-745): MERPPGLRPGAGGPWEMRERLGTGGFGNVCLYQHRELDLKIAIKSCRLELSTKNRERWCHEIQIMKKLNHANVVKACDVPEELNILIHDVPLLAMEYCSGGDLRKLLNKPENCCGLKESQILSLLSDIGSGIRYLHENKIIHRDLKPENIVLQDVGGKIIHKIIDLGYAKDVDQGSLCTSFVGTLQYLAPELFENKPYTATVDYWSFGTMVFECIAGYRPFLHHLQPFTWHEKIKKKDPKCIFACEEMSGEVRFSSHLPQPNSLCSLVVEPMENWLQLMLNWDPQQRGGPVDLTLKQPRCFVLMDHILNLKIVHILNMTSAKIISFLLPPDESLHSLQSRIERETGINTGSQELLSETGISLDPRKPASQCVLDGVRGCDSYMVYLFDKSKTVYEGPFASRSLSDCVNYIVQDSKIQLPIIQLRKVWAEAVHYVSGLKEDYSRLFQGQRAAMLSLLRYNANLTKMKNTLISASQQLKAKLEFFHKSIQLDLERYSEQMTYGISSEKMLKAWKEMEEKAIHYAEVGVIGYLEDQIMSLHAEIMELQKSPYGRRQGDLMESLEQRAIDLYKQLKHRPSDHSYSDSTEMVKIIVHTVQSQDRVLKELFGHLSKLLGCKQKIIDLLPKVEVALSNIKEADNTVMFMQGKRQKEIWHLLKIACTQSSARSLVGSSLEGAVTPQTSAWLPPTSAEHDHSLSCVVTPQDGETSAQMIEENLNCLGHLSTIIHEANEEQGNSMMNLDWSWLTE
Text: To examine the pyrrolo[2,3-b]pyridines as an alternative scaffold, we adopted the AIPP core because it had similar dimensions to SU909 (1), with HBD/HBA motifs positioned at the scaffold extremities to interact with both the hinge region and the G-loop wall of IKKα, a rationale we had previously proposed as the basis for imparting selectivity. A preliminary set of AIPP derivatives was designed and synthesised to explore its utility as an IKK-targeting scaffold, whilst incorporating additional functionality through which to introduce selectivity for the IKKα isoform (2–4; Figure 3). This was achieved by initially adopting two different approaches: either appending a hydrophobic moiety to the pyrrolo[2,3-b]pyridine motif as a fused form to afford the tricyclic derivatives 2 and 3, or as a phenyl substituent to introduce flexibility with respect to the central pyrrolo[2,3-b]pyridine moiety in 4. When assessed against IKKα and IKKβ using our in-house DELFIA kinase assay […] The pyrrolo[2,3-b]pyridine was bound to the hinge region in the classical HBA/HBD motif with the GK+3 amide backbone, whilst the aminoindazole projected towards the top of the pocket to interact with the G-loop (Figure 4A). […] In both isoforms, the 2-phenyl moiety protruded away from the hinge towards the exposed solvent area.
IKKα and IKKβ inhibitory activity were determined using a dissociation-enhanced ligand fluorescent immunoassay (DELFIA) based on the protocol of HTScan™ IKKβ Kinase Assay (Cell Signaling Technology, Danvers, MA, USA) as described in [24].

[4] = target: SAPK2b(h) (Homo sapiens, UniProt Q15759); test: kinase panel; format: biochemical
Sequence of SAPK2b(h) (Q15759 whole entry): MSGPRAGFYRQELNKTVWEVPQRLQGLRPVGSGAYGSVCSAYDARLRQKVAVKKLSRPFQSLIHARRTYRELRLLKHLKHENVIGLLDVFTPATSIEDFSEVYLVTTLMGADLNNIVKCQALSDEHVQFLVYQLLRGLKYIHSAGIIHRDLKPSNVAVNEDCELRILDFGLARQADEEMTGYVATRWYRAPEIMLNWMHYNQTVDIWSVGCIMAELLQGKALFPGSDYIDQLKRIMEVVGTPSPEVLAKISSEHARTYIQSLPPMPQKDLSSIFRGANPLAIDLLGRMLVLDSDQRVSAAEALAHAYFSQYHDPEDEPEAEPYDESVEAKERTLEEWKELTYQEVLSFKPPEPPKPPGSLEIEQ
Method in brief: (§6)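 % inhibition read-out; kinome panel of 231 kinases; one analogue run on a selected 98-kinase subset only.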

[5] = target: DMPK(h) (Homo sapiens, UniProt Q09013); test: kinase panel; format: biochemical
Sequence of DMPK(h) (Q09013 whole entry): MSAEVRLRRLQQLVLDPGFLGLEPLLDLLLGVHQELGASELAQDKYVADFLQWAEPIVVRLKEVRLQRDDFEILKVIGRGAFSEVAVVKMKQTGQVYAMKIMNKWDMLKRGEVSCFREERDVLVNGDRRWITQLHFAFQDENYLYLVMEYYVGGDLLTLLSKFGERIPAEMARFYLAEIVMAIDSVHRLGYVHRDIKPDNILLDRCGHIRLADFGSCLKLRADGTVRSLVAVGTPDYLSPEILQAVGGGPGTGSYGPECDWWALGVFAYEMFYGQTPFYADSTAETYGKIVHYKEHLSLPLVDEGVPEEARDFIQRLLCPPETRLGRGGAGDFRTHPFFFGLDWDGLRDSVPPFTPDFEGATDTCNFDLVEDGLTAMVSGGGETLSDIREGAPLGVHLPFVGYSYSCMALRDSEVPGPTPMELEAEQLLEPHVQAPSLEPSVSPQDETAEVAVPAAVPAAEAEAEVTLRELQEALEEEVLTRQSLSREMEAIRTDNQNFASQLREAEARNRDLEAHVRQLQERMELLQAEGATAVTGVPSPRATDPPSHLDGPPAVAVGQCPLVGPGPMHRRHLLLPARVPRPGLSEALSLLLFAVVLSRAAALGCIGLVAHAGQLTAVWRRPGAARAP
Method in brief: as §6

[6] = target: HIPK2(h) (Homo sapiens, UniProt Q9H2X6); test: kinase panel; format: biochemical
Sequence of HIPK2(h) (Q9H2X6 whole entry): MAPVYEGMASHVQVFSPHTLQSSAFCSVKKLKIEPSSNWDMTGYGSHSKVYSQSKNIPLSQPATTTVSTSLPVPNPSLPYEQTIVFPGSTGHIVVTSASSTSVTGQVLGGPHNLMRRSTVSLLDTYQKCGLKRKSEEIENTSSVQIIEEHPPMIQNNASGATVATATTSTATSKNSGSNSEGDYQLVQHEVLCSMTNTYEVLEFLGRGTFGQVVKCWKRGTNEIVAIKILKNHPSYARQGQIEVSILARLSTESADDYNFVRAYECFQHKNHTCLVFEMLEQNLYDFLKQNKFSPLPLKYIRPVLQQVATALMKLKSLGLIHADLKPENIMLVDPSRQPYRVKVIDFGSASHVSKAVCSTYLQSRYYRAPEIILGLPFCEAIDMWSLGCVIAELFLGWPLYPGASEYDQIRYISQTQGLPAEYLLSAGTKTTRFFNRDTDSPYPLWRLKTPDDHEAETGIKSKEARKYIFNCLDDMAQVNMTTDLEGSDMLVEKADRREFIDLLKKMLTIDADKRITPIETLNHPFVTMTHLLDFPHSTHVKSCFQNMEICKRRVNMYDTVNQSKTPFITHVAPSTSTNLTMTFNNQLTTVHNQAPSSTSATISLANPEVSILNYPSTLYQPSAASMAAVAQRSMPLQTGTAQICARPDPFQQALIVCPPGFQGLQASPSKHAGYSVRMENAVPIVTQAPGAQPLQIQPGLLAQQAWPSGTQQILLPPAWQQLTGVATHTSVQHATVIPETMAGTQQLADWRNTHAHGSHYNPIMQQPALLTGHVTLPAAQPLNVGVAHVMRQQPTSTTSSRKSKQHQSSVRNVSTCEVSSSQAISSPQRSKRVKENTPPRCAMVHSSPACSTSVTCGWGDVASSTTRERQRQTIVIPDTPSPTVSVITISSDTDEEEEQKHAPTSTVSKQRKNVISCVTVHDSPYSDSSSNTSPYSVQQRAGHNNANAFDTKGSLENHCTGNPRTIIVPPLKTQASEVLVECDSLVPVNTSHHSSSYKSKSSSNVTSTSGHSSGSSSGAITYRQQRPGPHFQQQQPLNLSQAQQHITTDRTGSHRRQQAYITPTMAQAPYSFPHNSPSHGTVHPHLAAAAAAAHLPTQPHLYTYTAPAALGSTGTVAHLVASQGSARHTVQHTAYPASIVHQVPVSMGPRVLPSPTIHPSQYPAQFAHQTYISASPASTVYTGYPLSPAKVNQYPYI
Method in brief: as §6

[7] = target: IRR(h) (Homo sapiens, UniProt P14616); test: kinase panel; format: biochemical
Sequence of IRR(h) (P14616 27-1297): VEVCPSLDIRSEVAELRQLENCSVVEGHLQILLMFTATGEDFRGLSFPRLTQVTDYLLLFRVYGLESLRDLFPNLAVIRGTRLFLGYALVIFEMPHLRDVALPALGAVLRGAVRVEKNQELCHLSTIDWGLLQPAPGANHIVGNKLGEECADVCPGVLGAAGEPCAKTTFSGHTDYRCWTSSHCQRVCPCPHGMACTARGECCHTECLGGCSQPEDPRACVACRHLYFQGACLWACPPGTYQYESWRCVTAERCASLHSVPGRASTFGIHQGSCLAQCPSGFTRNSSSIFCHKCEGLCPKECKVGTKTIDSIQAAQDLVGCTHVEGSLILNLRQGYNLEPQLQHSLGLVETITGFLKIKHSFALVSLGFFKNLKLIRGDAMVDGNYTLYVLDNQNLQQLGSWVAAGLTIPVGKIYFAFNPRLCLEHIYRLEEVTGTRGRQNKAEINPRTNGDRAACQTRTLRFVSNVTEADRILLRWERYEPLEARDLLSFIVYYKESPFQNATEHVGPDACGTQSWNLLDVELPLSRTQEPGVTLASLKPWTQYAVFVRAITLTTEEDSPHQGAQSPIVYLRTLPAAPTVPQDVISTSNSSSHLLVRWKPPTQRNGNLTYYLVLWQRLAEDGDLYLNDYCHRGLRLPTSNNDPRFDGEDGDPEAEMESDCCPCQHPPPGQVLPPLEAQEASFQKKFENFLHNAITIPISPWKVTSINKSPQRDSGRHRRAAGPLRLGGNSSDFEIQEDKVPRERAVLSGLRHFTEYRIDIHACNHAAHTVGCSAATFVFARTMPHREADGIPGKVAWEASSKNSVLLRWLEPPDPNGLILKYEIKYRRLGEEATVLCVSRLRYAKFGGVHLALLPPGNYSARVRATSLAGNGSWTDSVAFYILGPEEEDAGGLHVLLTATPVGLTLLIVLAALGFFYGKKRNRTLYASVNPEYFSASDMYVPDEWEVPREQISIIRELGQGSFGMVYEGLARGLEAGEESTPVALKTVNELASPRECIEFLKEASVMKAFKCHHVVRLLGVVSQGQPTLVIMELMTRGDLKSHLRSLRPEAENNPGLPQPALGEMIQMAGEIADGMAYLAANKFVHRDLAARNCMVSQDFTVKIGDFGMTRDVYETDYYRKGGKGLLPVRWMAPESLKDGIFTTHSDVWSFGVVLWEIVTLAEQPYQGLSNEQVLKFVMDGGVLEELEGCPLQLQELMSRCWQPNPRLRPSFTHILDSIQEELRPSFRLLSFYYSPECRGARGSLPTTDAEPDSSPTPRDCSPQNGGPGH
Method in brief: as §6

[8] = test system: p105 (Ser932) phosphorylation in PC-3M cells; test: TNFα-stimulated p105 (Ser932) phosphorylation, Western blotting; format: cell-based; settings: 0.1–10 µM
Description: U2OS cells were cultured in McCoy’s 5A Modified Medium, and PC-3M-Luc-C6 prostate cancer cells were cultured in Minimum Essential Medium (MEM), each containing 10% (v/v) Foetal Calf Serum (FCS), L-glutamine ([…]), and penicillin/streptomycin (250 units/mL; 100 μg/mL) and incubated in a humidified atmosphere at 37 °C with 5% (v/v) CO2. Cells were grown to near confluence and prior to experimentation rendered quiescent by serum deprivation for 24 h.
To examine the potential impact of compounds on canonical NF-κB signalling, cells were then exposed to vehicle (DMSO; 0.05% (v/v)) or increasing concentrations of compounds (0.01–30 µM) for 1 h prior to treatment with TNF⍺ (20 ng/mL) for 30 min. Whole-cell extracts were prepared, and the status of IκB⍺, phospho-p65 (Ser536), p65, and phospho-p105 ([…]) was also assessed by Western blotting.
Each figure/panel of Western blotting data represents one of at least three separate experiments. Western blots were scanned and imaged using Adobe Photoshop 5.0.2 software and polypeptide bands were semi-quantified by scanning densitometry using the Scion Image program. Data were normalised to fold expression/inhibition relative to ‘agonist plus vehicle’ treatment and expressed as mean ± s.e.m. IC50 values were established by curve fitting using the Hill equation. […]

| Structure (SMILES) | number of kinases inhibited by >80% [1] | % inhibition MLCK(h) [2] | Ki [3] | inhibition at 1 µM [4] | inhibition at 1 µM [5] | inhibition at 1 µM [6] | inhibition at 1 µM [7] | effect on TNFα-stimulated p105 (Ser932) phosphorylation [8] | Selectivity for IKKα over IKKβ ([3]; listed as 6g [SU1349]) | Selectivity for IKKα over IKKβ ([3]; listed as SU1349) |
| --- | --- | --- | --- | --- | --- | --- | --- | --- | --- | --- |
| Nc1n[nH]c2ccc(-c3ccnc4[nH]c(-c5ccccc5)cc34)cc12 [Compound 4] | 44 kinases | 0% | 3 nM | -13% | 5% | 57% | 26% | – | – | – |
| Nc1n[nH]c2ccc(-c3ccnc4[nH]c(-c5cccc(OCc6ccccc6)c5)cc34)cc12 [Compound 5r [SU1261]] | 10 kinases | -10% | 10 nM | -18% | -4% | 14% | 1% | no significant concentration-dependent inhibition | – | – |
| Nc1n[nH]c2ccc(-c3ccnc4[nH]c(-c5ccnc(OCc6ccccc6)c5)cc34)cc12 [Compound 6g [SU1349]] | – | – | 16 nM | – | – | – | – | no impact | 209 fold | 209.5 fold |
